Assay results as given in PMC9878342, “Gossypol acetate: A natural polyphenol derivative with antimicrobial activities against the essential cell division protein FtsZ” (Frontiers in Microbiology, 2023).

Target: T1, FtsZ (SaFtsZ) (Staphylococcus aureus, UniProt P0A031)
T1 construct: 6× His-FtsZ (N-terminal 6× His tag)
T1 sequence (P0A031 1-390): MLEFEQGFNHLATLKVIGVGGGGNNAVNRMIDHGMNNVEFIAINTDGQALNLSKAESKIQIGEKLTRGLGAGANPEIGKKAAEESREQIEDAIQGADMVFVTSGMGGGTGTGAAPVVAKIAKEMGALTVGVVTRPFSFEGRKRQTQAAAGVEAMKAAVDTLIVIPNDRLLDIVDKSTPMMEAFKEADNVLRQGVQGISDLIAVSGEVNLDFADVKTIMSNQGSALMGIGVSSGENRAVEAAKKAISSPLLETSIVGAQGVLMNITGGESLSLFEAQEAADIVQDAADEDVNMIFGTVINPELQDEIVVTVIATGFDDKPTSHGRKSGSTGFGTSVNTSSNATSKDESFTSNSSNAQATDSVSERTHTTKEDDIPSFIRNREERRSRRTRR
Test: isothermal titration calorimetry; also GTPase inhibition and […]° light scattering
Format: binding

Question: Which Kd does the source give for Cc1cc2c(C(C)C)c(O)c(O)c(C=O)c2c(O)c1-c1c(C)cc2c(C(C)C)c(O)c(O)c(C=O)c2c1O [S2303, Gossypol acetate] here?
Answer: 3.6 ± 0.7 µM
